PubChem BioAssay AID2060901 (Molecular Pharmacology Branch, DTP, NCI, 2025)

Test system: 422866-222-R5-J1-PDC complex spheroids viability
Assay: Anticancer human tumor 422866-222-R5-J1-PDC patient-derived pancreatic adenocarcinoma cell line growth inhibition [RAS]
Conditions: for IC50: curve of first compound; for viability, T/C: stronger effect = lower value
Method in brief: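 Tumour cells grown as complex spheroids with HUVEC endothelial cells and mesenchymal stem cells, treated with RAS pathway inhibitor combinations. Each agent spans half-log steps from near clinical Cmax, or 10 microM where Cmax is unknown.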

[1] = second compound 0.000949 µM, first compound 0.0316 µM
[2] = second compound 0.000949 µM, first compound 0.1 µM
[3] = second compound 0.000949 µM, first compound 0.316 µM
[4] = second compound 0.000949 µM, first compound 1 µM
[5] = second compound 0.000949 µM, first compound 3.16 µM
[6] = second compound 0.000949 µM, first compound 10 µM
[7] = second compound 0.003 µM, first compound 0.0316 µM
[8] = second compound 0.003 µM, first compound 0.1 µM
[9] = second compound 0.003 µM, first compound 0.316 µM
[10] = second compound 0.003 µM, first compound 1 µM
[11] = second compound 0.003 µM, first compound 3.16 µM
[12] = second compound 0.003 µM, first compound 10 µM
[13] = second compound 0.00949 µM, first compound 0.0316 µM
[14] = second compound 0.00949 µM, first compound 0.1 µM
[15] = second compound 0.00949 µM, first compound 0.316 µM
[16] = second compound 0.00949 µM, first compound 1 µM
[17] = second compound 0.00949 µM, first compound 3.16 µM
[18] = second compound 0.00949 µM, first compound 10 µM
[19] = second compound 0.03 µM, first compound 0.0316 µM
[20] = second compound 0.03 µM, first compound 0.1 µM
[21] = second compound 0.03 µM, first compound 0.316 µM
[22] = second compound 0.03 µM, first compound 1 µM
[23] = second compound 0.03 µM, first compound 3.16 µM
[24] = second compound 0.03 µM, first compound 10 µM
[25] = second compound 0.0949 µM, first compound 0.0316 µM
[26] = second compound 0.0949 µM, first compound 0.1 µM
[27] = second compound 0.0949 µM, first compound 0.316 µM
[28] = second compound 0.0949 µM, first compound 1 µM
[29] = second compound 0.0949 µM, first compound 3.16 µM
[30] = second compound 0.0949 µM, first compound 10 µM
[31] = second compound 0.3 µM, first compound 0.0316 µM
[32] = second compound 0.3 µM, first compound 0.1 µM
[33] = second compound 0.3 µM, first compound 0.316 µM
[34] = second compound 0.3 µM, first compound 1 µM
[35] = second compound 0.3 µM, first compound 3.16 µM
[36] = second compound 0.3 µM, first compound 10 µM
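Also: spheroids exposed to compounds for 7 days.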
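For viability, T/C in this document: 100% = DMSO vehicle control viability.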

## CC(=O)OC12COC1CC(O)C1(C)C(=O)C(O)C3=C(C)C(OC(=O)C(O)C(NC(=O)OC(C)(C)C)c4ccccc4)CC(O)(C(OC(=O)c4ccccc4)C21)C3(C)C (stereo unspecified) + CCn1c(-c2cccnc2C(C)OC)c2c3cc(ccc31)N1CCOC(CC(NC(=O)C(C(C)C)N(C)C(=O)C3(F)CCN(C(=O)C#CC(C)(C)N(C)C)CC3)C(=O)N3CCCC(N3)C(=O)OCC(C)(C)C2)C1
Second compound 0.000949 µM
  IC50: < 31.6 nM
Second compound 0.003 µM
  IC50: < 31.6 nM
Second compound 0.00949 µM
  IC50: < 31.6 nM
Second compound 0.03 µM
  IC50: < 31.6 nM
Second compound 0.0949 µM
  IC50: < 31.6 nM
Second compound 0.3 µM
  IC50: < 31.6 nM
[1]
  viability, T/C: 23.9%
[2]
  viability, T/C: 23.8%
[3]
  viability, T/C: 25.8%
[4]
  viability, T/C: 27.3%
[5]
  viability, T/C: 26.3%
[6]
  viability, T/C: 25.9%
[7]
  viability, T/C: 19.9%
[8]
  viability, T/C: 19.6%
[9]
  viability, T/C: 19%
[10]
  viability, T/C: 21.1%
[11]
  viability, T/C: 19.8%
[12]
  viability, T/C: 21.1%
[13]
  viability, T/C: 19.9%
[14]
  viability, T/C: 19%
[15]
  viability, T/C: 20.1%
[16]
  viability, T/C: 21.5%
[17]
  viability, T/C: 22.5%
[18]
  viability, T/C: 19.6%
[19]
  viability, T/C: 15.4%
[20]
  viability, T/C: 19.2%
[21]
  viability, T/C: 21.6%
[22]
  viability, T/C: 19%
[23]
  viability, T/C: 21.3%
[24]
  viability, T/C: 23.9%
[25]
  viability, T/C: 14.5%
[26]
  viability, T/C: 16.5%
[27]
  viability, T/C: 15.3%
[28]
  viability, T/C: 16.4%
[29]
  viability, T/C: 21.6%
[30]
  viability, T/C: 20.9%
[31]
  viability, T/C: 16.2%
[32]
  viability, T/C: 17.9%
[33]
  viability, T/C: 17.6%
[34]
  viability, T/C: 16.8%
[35]
  viability, T/C: 18.4%
[36]
  viability, T/C: 19.9%

## NC1c2ccccc2OC12CCN(c1cnc3c(N4CCCc5ncccc54)n[nH]c3n1)CC2 (stereo unspecified) + CCn1c(-c2cccnc2C(C)OC)c2c3cc(ccc31)N1CCOC(CC(NC(=O)C(C(C)C)N(C)C(=O)C3(F)CCN(C(=O)C#CC(C)(C)N(C)C)CC3)C(=O)N3CCCC(N3)C(=O)OCC(C)(C)C2)C1
Second compound 0.000949 µM
  IC50: < 31.6 nM
Second compound 0.003 µM
  IC50: < 31.6 nM
Second compound 0.00949 µM
  IC50: < 31.6 nM
Second compound 0.03 µM
  IC50: < 31.6 nM
Second compound 0.0949 µM
  IC50: < 31.6 nM
Second compound 0.3 µM
  IC50: < 31.6 nM
[1]
  viability, T/C: 20.1%
[2]
  viability, T/C: 18.2%
[3]
  viability, T/C: 14.9%
[4]
  viability, T/C: 16.1%
[5]
  viability, T/C: 18.1%
[6]
  viability, T/C: 15.7%
[7]
  viability, T/C: 16%
[8]
  viability, T/C: 12.6%
[9]
  viability, T/C: 14.4%
[10]
  viability, T/C: 14.4%
[11]
  viability, T/C: 13.5%
[12]
  viability, T/C: 15.1%
[13]
  viability, T/C: 17.7%
[14]
  viability, T/C: 14.1%
[15]
  viability, T/C: 13.7%
[16]
  viability, T/C: 14.3%
[17]
  viability, T/C: 13.8%
[18]
  viability, T/C: 15.8%
[19]
  viability, T/C: 15.8%
[20]
  viability, T/C: 12.8%
[21]
  viability, T/C: 14.3%
[22]
  viability, T/C: 12.9%
[23]
  viability, T/C: 12.9%
[24]
  viability, T/C: 13.6%
[25]
  viability, T/C: 12.8%
[26]
  viability, T/C: 13.3%
[27]
  viability, T/C: 13.6%
[28]
  viability, T/C: 13%
[29]
  viability, T/C: 12.6%
[30]
  viability, T/C: 13.4%
[31]
  viability, T/C: 11.3%
[32]
  viability, T/C: 13.4%
[33]
  viability, T/C: 13.9%
[34]
  viability, T/C: 11.3%
[35]
  viability, T/C: 14.2%
[36]
  viability, T/C: 17.4%

## Nc1ccn(C2OC(CO)C(O)C2(F)F)c(=O)n1 (stereo unspecified) + CCn1c(-c2cccnc2C(C)OC)c2c3cc(ccc31)N1CCOC(CC(NC(=O)C(C(C)C)N(C)C(=O)C3(F)CCN(C(=O)C#CC(C)(C)N(C)C)CC3)C(=O)N3CCCC(N3)C(=O)OCC(C)(C)C2)C1
Second compound 0.000949 µM
  IC50: < 3.16 nM
Second compound 0.003 µM
  IC50: < 3.16 nM
Second compound 0.00949 µM
  IC50: < 3.16 nM
Second compound 0.03 µM
  IC50: < 3.16 nM
Second compound 0.0949 µM
  IC50: < 3.16 nM
Second compound 0.3 µM
  IC50: < 3.16 nM
Second compound 0.000949 µM, first compound 0.00316 µM
  viability, T/C: 25.9%
Second compound 0.000949 µM, first compound 0.01 µM
  viability, T/C: 23.6%
[1]
  viability, T/C: 25.8%
[2]
  viability, T/C: 23.4%
[3]
  viability, T/C: 23.1%
[4]
  viability, T/C: 18.5%
Second compound 0.003 µM, first compound 0.00316 µM
  viability, T/C: 22.8%
Second compound 0.003 µM, first compound 0.01 µM
  viability, T/C: 20.6%
[7]
  viability, T/C: 20.3%
[8]
  viability, T/C: 17.5%
[9]
  viability, T/C: 16.3%
[10]
  viability, T/C: 13.8%
Second compound 0.00949 µM, first compound 0.00316 µM
  viability, T/C: 22.7%
Second compound 0.00949 µM, first compound 0.01 µM
  viability, T/C: 20.1%
[13]
  viability, T/C: 17.9%
[14]
  viability, T/C: 15.7%
[15]
  viability, T/C: 15.6%
[16]
  viability, T/C: 15.2%
Second compound 0.03 µM, first compound 0.00316 µM
  viability, T/C: 18.8%
Second compound 0.03 µM, first compound 0.01 µM
  viability, T/C: 22.6%
[19]
  viability, T/C: 17.1%
[20]
  viability, T/C: 13.3%
[21]
  viability, T/C: 14.6%
[22]
  viability, T/C: 16.9%
Second compound 0.0949 µM, first compound 0.00316 µM
  viability, T/C: 17.2%
Second compound 0.0949 µM, first compound 0.01 µM
  viability, T/C: 17.9%
[25]
  viability, T/C: 15.9%
[26]
  viability, T/C: 13.1%
[27]
  viability, T/C: 13.3%
[28]
  viability, T/C: 12.9%
Second compound 0.3 µM, first compound 0.00316 µM
  viability, T/C: 14.2%
Second compound 0.3 µM, first compound 0.01 µM
  viability, T/C: 17.2%
[31]
  viability, T/C: 14.3%
[32]
  viability, T/C: 12.4%
[33]
  viability, T/C: 12.5%
[34]
  viability, T/C: 11.4%
